In patent US8598193B2, “Polycyclic agents for the treatment of respiratory syncytial virus infections” (Biota Scientific Management Pty Ltd., priority 2003, dated 2013):
Converted amounts (≈) assume the structure as drawn. Read-outs that look alike come from different tables or passages of the source.

Columns and labels:
[1] = target: T1, RSV A2 F glycoprotein (membrane-anchored full-length F) in 293 cells (Human respiratory syncytial virus A, UniProt P03420); experiment: RSV fusion assay (syncytium formation assay); format: cell-based
T1 construct: A membrane-anchored full-length F was generated essentially according to the method described therein; expressed in transfected cells; host or cells: 293 cells
Procedure: Method R: RSV Fusion Assay
Selected compounds of the invention were tested for their ability to inhibit the essential fusion processes of the respiratory syncytial virus.
Single-stranded synthetic DNA oligonucleotides encoding the portions of RSV A2 F glycoprotein incorporating optimal codons and without potential poly(A) addition or splice sites were generated synthetically (Mason et al, WO0242326). A membrane-anchored full-length F was generated essentially according to the method described therein and in Morton et al, Virology, 2003, 311, 275.
Fusion activity of the RSV-F constructs was measured in 293 cells essentially according to the method described in Morton et al, Virology, 2003, 311, 275. For example: cells in six well plates at approximately 80% confluency were transfected by adding plasmid DNA (2 μg/well) carrying the constructs of interest in CaPO4 solution for 4 hours. After glycerol shock and wash, the transfected cells were trypsinized and 1.5×10^4 cells/well added to 96-well plates containing half-log serial dilutions of the test compound. Syncytium formation was evaluated by visual inspection and quantified at 48 hours post-transfection by addition of 20 μL of CellTiter 96 One Solution (Promega) followed by incubation for 4 hours at 37° C. The colour reaction was then stopped by addition of 25 μL 10% SDS to each well and absorbance measured at 492 nm. The compound concentration that reduced absorbance relative to untreated control cultures by 50% (EC50) was calculated using an Excel curve fitting program.

RSV A2 [2] = experiment: RSV antiviral cytopathic effect (CPE) assay, MTT readout; format: cell-based; settings: human respiratory syncytial virus, HEp-2, 120 h
Procedure: Method Q: RSV Antiviral Assay Protocol
Compounds of the invention were tested for their antiviral activity against respiratory syncytial virus. Cytopathic effect (CPE) assays were performed essentially as described in the literature (see for example Watanabe et al, 1. Virological Methods, 1994, 48, 257). Serial dilutions of the test compounds were made in assay medium. HEp2 cells (1.0×10^4 cells/well) were infected with RSV at a low multiplicity of infection (e.g. RSV A2 at an moi of 0.01) and 100 μL added to cultures assessing antiviral activity and cells without virus added to those assessing compound cytotoxicity. Assays were incubated for approximately 5 days at 37° C. in a 5% CO2 atmosphere. The extent of CPE was determined via metabolism of the vital dye 3-(4,5-dimethylthiaxol-2-yl)-2,5-diphenyltetrazolium bromide (MTT). A 3 mg/ml stock of MTT was made in assay medium and 100 μL added to each well, taking the final MTT concentration to […]. After 2 hours incubation at 37° C., the media-MTT solution was removed and 200 μL of isopropanol was added to dissolve the vital dye crystals. Plates were shaken and the absorbance read at 540 nm. The compound concentrations that inhibited CPE by 50% (EC50) and developed cytotoxicity (CC50) were calculated using an Excel curve fitting program.

RSV A2 [3] = experiment: RSV cotton rat model; format: in vivo; settings: oral 100 mg/kg/day, lung RSV titres by plaque assay four days after inoculation
Procedure: Method S: RSV Cotton Rat Model
The cotton rat model was performed essentially as described in the literature (Wyde et al, Antiviral Res. 2003, 60, 221). Briefly, cotton rats weighing 50-100 g were lightly anesthetized with isoflurane and dosed orally with 100 mg/kg/day of compound or vehicle control. Viral infection followed 2 hours post-treatment in similarly anesthetized rats by intranasal instillation with approximately 1000 TCID50 of RSV A2 per animal. Four days after virus inoculation, each cotton rat was sacrificed and their lungs removed and RSV titres determined by plaque assay.

RSV A2 [4] = experiment: RSV Balb/c mouse model; format: in vivo; settings: female Balb/c mice, compound orally 6 hours preinfection, lung RSV titres by plaque assay three days after virus inoculation
Procedure: Method T: RSV Balb/c Mouse Model
The mouse model was performed essentially as described by Clanci et al (Antimicrobial Agents and Chemotherapy. 2004, 48, 413). Briefly, eight week old female Balb/c mice were weighed, anesthetized intraperitoneally with Avertin™ and compound or vehicle administered orally 6 hours preinfection. Mice were inoculated intranasally with approximately 10000 TCID50 RSV A2 per animal. Three days after virus inoculation, each mouse was sacrificed and their lungs removed and RSV titres determined by plaque assay.

[5] = RSV A2 in HEp2 cells, CPE assay, MTT, approx. 5 days, read-out: Activity Range (RSV A2 antiviral EC50), compounds of Table 2
[6] = RSV A2 in HEp2 cells, CPE assay, MTT, approx. 5 days, read-out: Activity Range (RSV A2 antiviral EC50), compounds of Table 3

T1 sequence (P03420 26-109): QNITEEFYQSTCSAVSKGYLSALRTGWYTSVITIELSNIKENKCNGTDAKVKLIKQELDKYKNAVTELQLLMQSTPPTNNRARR
T1 sequence (P03420 137-574): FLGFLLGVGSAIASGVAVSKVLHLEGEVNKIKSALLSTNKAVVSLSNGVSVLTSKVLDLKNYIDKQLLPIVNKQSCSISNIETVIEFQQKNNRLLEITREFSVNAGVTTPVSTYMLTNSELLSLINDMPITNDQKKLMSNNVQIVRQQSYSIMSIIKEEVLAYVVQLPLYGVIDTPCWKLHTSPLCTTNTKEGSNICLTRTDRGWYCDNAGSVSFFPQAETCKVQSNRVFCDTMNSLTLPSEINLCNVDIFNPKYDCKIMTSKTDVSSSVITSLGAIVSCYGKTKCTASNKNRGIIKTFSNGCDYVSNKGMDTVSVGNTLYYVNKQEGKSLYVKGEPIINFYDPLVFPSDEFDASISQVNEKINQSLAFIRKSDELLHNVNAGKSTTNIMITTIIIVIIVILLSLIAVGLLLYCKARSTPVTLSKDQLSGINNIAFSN

| Compound | EC50 (RSV A2 [2]; [6]) [µg/mL] | EC50 [1] [µM] | other results |
| --- | --- | --- | --- |
| O=C(c1ccc(F)cc1)N1CCN2C(=O)c3ccccc3C12c1ccc(Cl)cc1 (stereo not shown) [Compound 12] |  | 3.69 to 5.53 | EC50 (RSV A2 [2]; read-out: Activity Range (RSV A2 antiviral EC50), compounds of Table 2): 0.1 to 0.25 µg/mL (≈ 0.246 to 0.614 µM) |
| CCC(=O)N1CCN2C(=O)c3ccccc3C12c1ccc(Cl)cc1 (stereo not shown) [Compound 16] |  | 2.2 to 4.4 |  |
| COc1ccc(CC(=O)N2CCN3C(=O)c4ccccc4C23c2ccc(C)cc2)cc1 (stereo not shown) [Compound 66] |  | 1.82 to 3.64 | EC50 (RSV A2 [2]; [5]): 0.1 to 0.25 µg/mL (≈ 0.242 to 0.606 µM) |
| O=C(c1ccc(F)nc1)N1CCN2C(=O)c3ccccc3C12c1ccc(Cl)cc1 (stereo not shown) [Compound 306] |  |  | EC50 (RSV A2 [2]; [5]): < 0.1 µg/mL; % Reduction of virus Control (RSV A2 [3]): 72% |
| O=C(c1ccc(F)cc1)N1CCN2C(=O)c3ccncc3C12c1ccc(Cl)cc1 (stereo not shown) [Compound 336] | 0.1 to 0.25 (≈ 0.245 to 0.613 µM) | < 1.84 | % Reduction of virus Control (RSV A2 [4]): 80%; % Reduction of virus Control (RSV A2 [3]): 96% |
| CC(C)c1sc(Cl)nc1C(=O)N1CCN2C(=O)c3ccncc3C21c1ccc(Cl)cc1 (stereo not shown) [Compound 474] | 0.1 to 0.25 (≈ 0.211 to 0.528 µM) |  |  |
| O=C(c1cncnc1)N1CCN2C(=O)c3ccncc3C12c1ccc(Cl)cc1 (stereo not shown) [Compound 481] | 0.25 to 1 (≈ 0.638 to 2.55 µM) |  |  |
| O=C(c1cscn1)N1CCN2C(=O)c3ccncc3C12c1ccc(Cl)cc1 (stereo not shown) [Compound 483] | < 0.1 |  |  |
| Cc1nonc1C(=O)N1CCN2C(=O)c3ccncc3C21c1ccc(Cl)cc1 (stereo not shown) [Compound 484] | < 0.1 |  |  |

More lines, main results first:

| EC50 (RSV A2 [2]; [6]) [µg/mL] | Compound | EC50 [1] [µM] | other results |
| --- | --- | --- | --- |
| 0.1 to 0.25 (≈ 0.236 to 0.59 µM) | O=C(c1ccc(F)cc1)N1CCN2C(=O)c3cc[n+]([O-])cc3C12c1ccc(Cl)cc1 (stereo not shown) [Compound 352] |  | % Reduction of virus Control (RSV A2 [3]): 68% |
| < 0.1 | O=C(c1ccc(F)nc1)N1CCN2C(=O)c3cc[n+]([O-])cc3C12c1ccc(Cl)cc1 (stereo not shown) [Compound 480] |  |  |
| < 0.1 | O=C(c1csc(-c2ccc[n+]([O-])c2)n1)N1CCN2C(=O)c3cc[n+]([O-])cc3C12c1ccc(Cl)cc1 (stereo not shown) [Compound 482] |  |  |
